Each structure is given as a SMILES string.

Here are results for 22 molecules from ChEMBL document CHEMBL3627643, “Synthesis of stereochemically diverse cyclic analogs of tubulysins” (Bioorg Med Chem, 2015).

The experiment deals with Tubulin (Sus scrofa) (UniProt P02554+P02550). Put plainly: Inhibition of pig tubulin polymerization at 5 uM incubated for 20 mins at 37 degC by fluorescence based tubulin polymerization inhibition assay. It is filed as protein assay.
Sequence of Tubulin (Sus scrofa) (P02550 whole entry, looked up): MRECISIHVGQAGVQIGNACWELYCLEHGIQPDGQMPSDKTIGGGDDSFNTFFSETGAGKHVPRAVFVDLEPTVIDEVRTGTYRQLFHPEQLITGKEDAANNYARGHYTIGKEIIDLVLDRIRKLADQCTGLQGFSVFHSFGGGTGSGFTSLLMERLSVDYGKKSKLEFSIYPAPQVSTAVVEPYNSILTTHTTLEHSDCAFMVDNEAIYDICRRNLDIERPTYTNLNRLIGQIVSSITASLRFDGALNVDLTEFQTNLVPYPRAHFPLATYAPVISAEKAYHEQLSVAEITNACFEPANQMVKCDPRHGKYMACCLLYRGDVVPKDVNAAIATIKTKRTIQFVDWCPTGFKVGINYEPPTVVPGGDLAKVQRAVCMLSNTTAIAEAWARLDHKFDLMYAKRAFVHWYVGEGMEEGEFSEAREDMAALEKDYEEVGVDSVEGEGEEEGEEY
Sequence of Tubulin (Sus scrofa) (P02554 whole entry, looked up): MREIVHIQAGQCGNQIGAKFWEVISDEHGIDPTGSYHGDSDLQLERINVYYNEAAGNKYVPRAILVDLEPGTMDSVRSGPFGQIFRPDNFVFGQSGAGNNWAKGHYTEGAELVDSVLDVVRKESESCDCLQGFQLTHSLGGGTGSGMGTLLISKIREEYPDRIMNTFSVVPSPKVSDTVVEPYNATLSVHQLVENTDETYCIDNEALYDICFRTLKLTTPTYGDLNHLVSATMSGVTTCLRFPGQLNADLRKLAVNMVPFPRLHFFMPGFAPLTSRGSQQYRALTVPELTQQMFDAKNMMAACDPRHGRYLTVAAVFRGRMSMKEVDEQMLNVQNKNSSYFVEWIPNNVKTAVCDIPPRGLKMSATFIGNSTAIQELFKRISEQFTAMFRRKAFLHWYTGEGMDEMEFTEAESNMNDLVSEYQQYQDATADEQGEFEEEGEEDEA
As for `CC[C@H](C)[C@H](NC(=O)[C@H]1CCCCN1C)C(=O)N[C@@H]1CCO[C@H](c2nc(C(=O)NC(C)C)cs2)C1`, the inhibition (in general, the share of the control response that was lost under treatment) was determined as 1.45%.
The molecule `CC[C@H](C)[C@@H](C(=O)N[C@H]1CCO[C@@H](c2nc(C(=O)NCCc3ccccc3)cs2)C1)N(C)C` returned an inhibition of 15.8%.
Under `CC[C@H](C)[C@H](NC(=O)[C@H]1CCCCN1C)C(=O)N[C@H]1CCO[C@@H](c2nc(C(=O)NC(C)C)cs2)C1` stands 5.35%; under `CC[C@H](C)[C@H](NC(=O)CN(C)C)C(=O)N[C@H]1CCO[C@@H](c2nc(C(=O)NC(C)C)cs2)C1`, 12.9%.
Under `CC[C@H](C)[C@H](NC(=O)[C@H]1CCCCN1C)C(=O)N(C)[C@H]1CCO[C@@H](c2nc(C(=O)NCCc3ccccc3)cs2)C1` stands 5.87%; under `CC[C@H](C)[C@H](NC(=O)[C@H]1CCCCN1C)C(=O)N[C@H]1CCO[C@@H](c2nc(C(=O)NCCc3ccccc3)cs2)C1`, 1.62%; under `CC[C@H](C)[C@H](NC(=O)[C@H]1CCCCN1C)C(=O)N[C@H]1CCO[C@H](c2nc(C(=O)NC(C)C)cs2)C1`, 8.73%.
As for `CC[C@H](C)[C@H](NC(=O)[C@H]1CCCCN1C)C(=O)N(C)[C@H]1CCO[C@@H](c2nc(C(=O)NC(C)C)cs2)C1`, the inhibition is 15.5%.
As for `CC[C@H](C)[C@@H](C(=O)N[C@H]1CCO[C@@H](c2nc(C(=O)NC(C)C)cs2)C1)N(C)C`, the figure is 16.9%; as for `CC[C@H](C)[C@H](NC(=O)[C@H]1CCCCN1C)C(=O)N(C)[C@H]1CCO[C@@H](c2nc(C(=O)NCc3ccccc3)cs2)C1`, 10.2%.
Under `CC[C@H](C)[C@H](N)C(=O)N[C@H]1CCO[C@@H](c2nc(C(=O)NCCc3ccccc3)cs2)C1` stands 8.52%; under `CC[C@H](C)[C@H](NC(=O)[C@H]1CCCCN1C)C(=O)N(C)[C@H]1CCO[C@@H](c2nc(C(=O)NCCOC)cs2)C1`, 10.6%; under `CC[C@H](C)[C@H](NC(=O)[C@H]1CCCCN1C)C(=O)N(C)[C@H]1CCO[C@@H](c2nc(C(=O)NCCN3CCOCC3)cs2)C1`, 7.46%.
Under `CC[C@@H](C)[C@H](NC(=O)[C@H]1CCCCN1C)C(=O)N(COC(=O)CC(C)C)[C@H](C[C@@H](OC(C)=O)c1nc(C(=O)N[C@@H](Cc2ccc(O)cc2)C[C@H](C)C(=O)O)cs1)C(C)C` stands 72.6%.
The molecule `CC[C@H](C)[C@H](N)C(=O)N[C@H]1CCO[C@@H](c2nc(C(=O)NC(C)C)cs2)C1` registered an inhibition of 10.6%.
The molecule `CC[C@H](C)[C@H](NC(=O)[C@H]1CCCCN1C)C(=O)N(C)[C@H]1CCO[C@@H](c2nc(C(=O)NCCc3ccccn3)cs2)C1` returned an inhibition of 20.2%.
As for `CC[C@H](C)[C@H](NC(=O)[C@H]1CCCCN1C)C(=O)N[C@@H]1CCO[C@H](c2nc(C(=O)NCCc3ccccc3)cs2)C1`, the figure is 3.76%; as for `CC[C@H](C)[C@H](NC(=O)[C@H]1CCCCN1C)C(=O)N[C@H]1CCO[C@H](c2nc(C(=O)NCCc3ccccc3)cs2)C1`, 5.61%; as for `CC[C@H](C)[C@H](NC(=O)[C@H]1CCCCN1C)C(=O)N[C@@H]1CCO[C@@H](c2nc(C(=O)NCCc3ccccc3)cs2)C1`, 2.23%.
Under `CC[C@H](C)[C@H](NC(=O)[C@H]1CCCCN1C)C(=O)N[C@@H]1CCO[C@@H](c2nc(C(=O)NC(C)C)cs2)C1` stands 3.9%.
In turn, `CC[C@]1(O)C[C@@H]2CN(CCc3c([nH]c4ccccc34)[C@@](C(=O)OC)(c3cc4c(cc3OC)N(C)[C@H]3[C@@](O)(C(=O)OC)[C@H](OC(C)=O)[C@]5(CC)C=CCN6CC[C@]43[C@@H]65)C2)C1` showed an inhibition of 73.9%.
As for `CC[C@H](C)[C@H](NC(=O)CN(C)C)C(=O)N[C@H]1CCO[C@@H](c2nc(C(=O)NCCc3ccccc3)cs2)C1`, the figure is 19.9%.
